Experiments:
Plasmopara viticola [1] = experiment: Preventive grape downy mildew control, detached Emperor leaves (Example 5, Table I); type: in vivo; conditions: 6.4 ppm, sprayed before inoculation
Plasmopara viticola [2] = experiment: Eradicant grape downy mildew control, detached Emperor leaves (Example 6, Table I); type: in vivo; conditions: 48 h, sprayed 2 days after inoculation, read-out: Eradicative Grape Downy Mildew Control, %
Plasmopara viticola [3] = experiment: Preventive grape downy mildew control, detached Cabernet Sauvignon leaves (Example 7, Table II); type: in vivo
[4] = test system: yeasts responsible for the alcoholic fermentation of grapes; experiment: Fermentation test, grape juice (Example 8, Table III); type: cell-based
Plasmopara viticola [5] = experiment: Eradicant downy mildew control on grape cuttings, wettable powder (Example 10, Table V); type: in vivo
Procedure: Three-month-old single-bud Cabernet Sauvignon cuttings (cultivated in gravel) containing 6 to 10 leaves were used as hosts. The undersides of the leaves were sprayed with a sporangial suspension of Plasmopara viticola containing 510,000 conidia per milliliter of water. The inoculated cuttings were placed into a misting chamber. […] Ten to 11 days after the inoculation, the amount of disease control was determined. The percent disease control provided by the test compound was based on the percent disease reduction relative to untreated check cuttings.

Plasmopara viticola [6] = experiment: Residual preventive grape downy mildew control, wettable powder (Example 11, Table VI); type: in vivo; conditions: 160 ppm, inoculated 3 days after treatment
Procedure: Three-month-old single-bud Cabernet Sauvignon cuttings (cultivated in gravel), containing 5 to 8 leaves, were used as hosts. […] Three days after fungicide treatment, the undersides of the leaves were sprayed with a sporangial suspension of Plasmopara viticola. The inoculated cuttings were put into a misting chamber. Eight to 10 days after the inoculation, the amount of disease control was determined. The percent disease control provided by the test compound was based on the percent disease reduction relative to untreated check cuttings.

Plasmopora viticola = experiment: Control of foliar grape downy mildew infection by root absorption (Example 12, Table VII); type: in vivo; conditions: 50% wettable powder, 50 ppm
Excerpt: Three-month-old single-bud Cabernet Sauvignon cuttings (cultivated in gravel), containing 9 to 12 leaves, were used as hosts. […] The cuttings were then replanted in gravel and put into a misting chamber. At four different times after root treatment, the leaf undersides were sprayed with a sporangial suspension of Plasmopora viticola. The inoculated cuttings were placed into the misting chamber to stimulate disease development. Ten to 12 days after inoculation, the amount of disease control was determined. The percent disease control provided by the test compound was based on the percent disease reduction relative to untreated check cuttings.

Bremia lactucae = experiment: Control of lettuce downy mildew (Example 13, Table VIII); type: in vivo
[7] = test system: Peronospora parasitica ssp. brassicae; experiment: Preventive control of cabbage downy mildew (Example 14, Table IX); type: in vivo; conditions: for % Control: disease reduction relative to check flat
[8] = test system: Peronospora parasitica ssp. brassicae; experiment: Curative control of cabbage downy mildew (Example 14, Table IX); type: in vivo; conditions: for % Control: disease reduction relative to check flat
[9] = test system: Pseudoperonospora cubensis; experiment: Foliar spray control of cucumber downy mildew (Example 15, Table X); type: in vivo
Phytophthora cryptogea [10] = experiment: Snapdragon crown and root rot control, soil drench (Example 16, Table XI); type: in vivo; conditions: soil drench, 100 ppm
Phytophthora cryptogea [11] = experiment: Snapdragon crown and root rot control, foliar spray (Example 16, Table XI); type: in vivo; conditions: foliar spray, 100 ppm
Phytophthora cryptogea [12] = experiment: Safflower crown and root rot control by foliar spray (Example 17, Table XII); type: in vivo
Phytophthora cryptogea [13] = experiment: Safflower crown and root rot control by soil drench, P. cryptogea (Example 18, Table XIII); type: in vivo
P. parasitica = experiment: Safflower crown and root rot control by soil drench, P. parasitica (Example 18, Table XIII); type: in vivo
P. cryptogea = experiment: Tobacco crown and root rot control by soil drench, P. cryptogea (Example 19, Table XIV); type: in vivo
Phytophthora parasitica = experiment: Tobacco crown and root rot control by soil drench, P. parasitica (Example 19, Table XIV); type: in vivo
Phytophthora capsici = experiment: Control of Phytophthora rot in sweet peppers (Example 20, Table XV); type: in vivo; conditions: 50% wettable powder
Procedure: The pots were then inoculated with the organism by spreading a bed of oats grain (contaminated with the Phytophthora capsici organism) on the soil surface and covering the bed with a 1-cm depth of sterilized soil. The sweet pepper seedlings were then sprayed to runoff with an aqueous suspension of the test compound at various test concentrations (12 pots per concentration level). The amount of disease control was determined by counting the number of dead plants. The percent disease control provided by the test compound was based on the percent disease reduction relative to untreated check seedlings.

Oral LD50 (rats) = conditions: rat, in vivo
Dermal LD50 (rats) = conditions: rat, in vivo, topical or ocular
[14] = 61.5 ppm, treated 3 days after inoculation
[15] = 62.5 ppm, treated 1 day after inoculation
[16] = 62.5 ppm, treated 2 days after inoculation
[17] = inoculated 1 day after root treatment
[18] = inoculated 5 days after root treatment

## Cc1cccc(C)c1N(C(=O)CCl)C1CCOC1=O (stereo not drawn) [Compound A, 3-(N-chloroacetyl-N-2,6-dimethylphenylamino)-gamma-butyrolactone]
Plasmopara viticola [1]
  pest or weed control at 6.4 ppm: 97%
Plasmopara viticola [2]; 6.4 ppm
  pest or weed control at 6.4 ppm: 99%
Plasmopara viticola [2]; 100 ppm
  pest or weed control at 100 ppm: 99%
Plasmopara viticola [3]; 6.4 ppm
  Percent Control: 100%
Plasmopara viticola [3]; 16 ppm
  Percent Control: 100%
Plasmopara viticola [3]; 40 ppm
  Percent Control: 100%
[4]; 1 ppm, after 1 day
  Cumulative loss of weight due to CO2 escape: 0.9 grams
[4]; 1 ppm, after 2 days
  Cumulative loss of weight due to CO2 escape: 5.0 grams
[4]; 1 ppm, after 3 days
  Cumulative loss of weight due to CO2 escape: 10.5 grams
[4]; 1 ppm, after 4 days
  Cumulative loss of weight due to CO2 escape: 11.3 grams
[4]; 1 ppm, after 7 days
  Cumulative loss of weight due to CO2 escape: 14.2 grams
[4]; 1 ppm, after 8 days
  Cumulative loss of weight due to CO2 escape: 14.5 grams
[4]; 2 ppm, after 1 day
  Cumulative loss of weight due to CO2 escape: 0.8 grams
[4]; 2 ppm, after 2 days
  Cumulative loss of weight due to CO2 escape: 5.2 grams
[4]; 2 ppm, after 3 days
  Cumulative loss of weight due to CO2 escape: 10.4 grams
[4]; 2 ppm, after 4 days
  Cumulative loss of weight due to CO2 escape: 11.1 grams
[4]; 2 ppm, after 7 days
  Cumulative loss of weight due to CO2 escape: 13.4 grams
[4]; 2 ppm, after 8 days
  Cumulative loss of weight due to CO2 escape: 13.7 grams
[4]; 4 ppm, after 1 day
  Cumulative loss of weight due to CO2 escape: 1.0 grams
[4]; 4 ppm, after 2 days
  Cumulative loss of weight due to CO2 escape: 5.2 grams
[4]; 4 ppm, after 3 days
  Cumulative loss of weight due to CO2 escape: 10.4 grams
[4]; 4 ppm, after 4 days
  Cumulative loss of weight due to CO2 escape: 11.1 grams
[4]; 4 ppm, after 7 days
  Cumulative loss of weight due to CO2 escape: 13.1 grams
[4]; 4 ppm, after 8 days
  Cumulative loss of weight due to CO2 escape: 13.3 grams
[4]; 8 ppm, after 1 day
  Cumulative loss of weight due to CO2 escape: 1.0 grams
[4]; 8 ppm, after 2 days
  Cumulative loss of weight due to CO2 escape: 5.4 grams
[4]; 8 ppm, after 3 days
  Cumulative loss of weight due to CO2 escape: 11.0 grams
[4]; 8 ppm, after 4 days
  Cumulative loss of weight due to CO2 escape: 11.8 grams
[4]; 8 ppm, after 7 days
  Cumulative loss of weight due to CO2 escape: 14.5 grams
[4]; 8 ppm, after 8 days
  Cumulative loss of weight due to CO2 escape: 15.2 grams
Plasmopara viticola [5]; [14]
  % Disease Control: 84.7%
  % Leaf Surface Infected: 4.15%
Plasmopara viticola [5]; 62.5 ppm
  % Disease Control: 91.6%
Plasmopara viticola [5]; [15]
  % Disease Control: 97.6%
  % Leaf Surface Infected: 0.51%
Plasmopara viticola [5]; [16]
  % Disease Control: 96.2%
  % Leaf Surface Infected: 0.55%
Plasmopara viticola [5]; 62.5 ppm, treated 5 days after inoculation
  % Leaf Surface Infected: 2.5%
Plasmopara viticola [6]
  % Disease Control: 99.8%
  % Leaf Surface Infected: 0.03%
Plasmopora viticola; [17]
  % Disease Control: 33.5%
  % Leaf Surface Infected: 6.26%
Plasmopora viticola; [18]
  % Disease Control: 98%
  % Leaf Surface Infected: 0.32%
Bremia lactucae; 25 g active/hl
  % Control: 75.8%
  % Dead Seedlings: 5.9%
Bremia lactucae; 50 g active/hl
  % Control: 90.6%
  % Dead Seedlings: 1.1%
Bremia lactucae; 100 g active/hl
  % Control: 95.5%
  % Dead Seedlings: 2.3%
[7]; 20 g a.i./hl
  % Diseased Seedlings: 1.8%
  % Control: 98.2%
[7]; 40 g a.i./hl
  % Diseased Seedlings: 2.2%
  % Control: 97.7%
[7]; 80 g a.i./hl
  % Diseased Seedlings: 1.5%
  % Control: 98.5%
[8]; 20 g a.i./hl
  % Diseased Seedlings: 1.8%
  % Control: 98.2%
[8]; 40 g a.i./hl
  % Diseased Seedlings: 1.0%
  % Control: 99.0%
[8]; 80 g a.i./hl
  % Diseased Seedlings: 0.6%
  % Control: 99.4%
[9]; 16 ppm
  % Control: 63%
[9]; 40 ppm
  % Control: 88%
[9]; 100 ppm
  % Control: 100%
Phytophthora cryptogea [10]
  % Control: 100%
Phytophthora cryptogea [11]
  % Control: 97%
Phytophthora cryptogea [12]; 16 ppm
  % Control: 92%
Phytophthora cryptogea [12]; 40 ppm
  % Control: 97%
Phytophthora cryptogea [12]; 100 ppm
  % Control: 100%
Phytophthora cryptogea [13]; 16 ppm
  % Control, P. Cryptogea: 92%
Phytophthora cryptogea [13]; 40 ppm
  % Control, P. Cryptogea: 97%
Phytophthora cryptogea [13]; 100 ppm
  % Control, P. Cryptogea: 100%
P. parasitica; 16 ppm
  % Control, P. Parasitica: 94%
P. parasitica; 40 ppm
  % Control, P. Parasitica: 99%
P. parasitica; 100 ppm
  % Control, P. Parasitica: 100%
P. cryptogea; 16 ppm
  % Control, P. Cryptogea: 96%
P. cryptogea; 40 ppm
  % Control, P. Cryptogea: 99.8%
P. cryptogea; 100 ppm
  % Control, P. Cryptogea: 100%
Phytophthora parasitica; 16 ppm
  % Control, P. Parasitica: 96%
Phytophthora parasitica; 40 ppm
  % Control, P. Parasitica: 99.8%
Phytophthora parasitica; 100 ppm
  % Control, P. Parasitica: 100%
Phytophthora capsici; 100 g/hl
  % Control: 25%
  % Leaf Surface Damaged: 0%
  % of Alive Seedlings: 50%
Phytophthora capsici; 200 g/hl
  % Control: 100%
  % Leaf Surface Damaged: 1.3%
  % of Alive Seedlings: 100%
Phytophthora capsici; 400 g/hl
  % Control: 100%
  % Leaf Surface Damaged: 1.63%
  % of Alive Seedlings: 100%
Oral LD50 (rats)
  LD50: > 1000 mg/kg
Dermal LD50 (rats)
  LD50: > 2000 mg/kg

Source: patent US4141989A, “Fungicidal 3-(N-chloroacetyl-N-arylamino)-gamma-butyrolactone compositions” (Chevron Research Company, priority 1977, dated 1979)
